Article PMC6627374, “Effects of the Pentapeptide P33 on Memory and Synaptic Plasticity in APP/PS1 Transgenic Mice: A Novel Mechanism Presenting the Protein Fe65 as a Target” (International Journal of Molecular Sciences, 2019)
“Also recorded” adds a separate entry of the source. Where a SMILES comes first, the peptide text is derived from it.

Key:
[1] = system: Aβ plaques; experiment: 4G8 immunohistochemistry, Aβ plaque density; type: in vivo, mouse; conditions: HC and CTX; 5 mg∙kg^−1 i.p., six months; five animals per group
Experimental: For this study, three-month-old male and female WT and APP/PS1 mice (n = 37) were used. Four groups were defined: WT-vehicle (physiological saline) (male n = 4; female n = 6), WT-P33 (male n = 6; female n = 5), APP/PS1-vehicle (male n = 3; female n = 5), and APP/PS1-P33 (male n = 6; female n = 2). Animals were subjected to intraperitoneal (i.p.) injections of P33 (5 mg∙kg^−1) for five days per week, over a course of six months. The mice were kept in groups under constant temperature (23 ± 0.5 °C), lighting (12-h/12-h light/dark cycle, lights on at 7:00 a.m.), and humidity (~50%). Standard mouse chow and tap water were supplied ad libitum. All behavioral experiments were performed in the light period. Handling was done daily at the same time.
Mice (five animals per group) were anaesthetized with chloral-hydrate (1 mg∙kg^−1) and perfused transcardially with PBS, followed by ice-cold 4% paraformaldehyde. The brains were removed, post-fixed in the same fixative, and immersed in a 30% sucrose solution containing 0.01% sodium-azide. […]
Slides were scanned by a digital slide scanner (Mirax Midi, 3DHistech Ltd., Budapest, Hungary), equipped with a Pannoramic Viewer 1.15.4, CaseViewer 2.1 program and a QuantCenter, HistoQuant module (3DHistech Ltd., Budapest, Hungary). For quantification, all of the sections were analyzed. […] Antibody-positive cell types from the ROIs were counted and quantified. […]

[2] = system: Pin1-WW domain (WW domain of Pin1); experiment: ITC binding to Pin1-WW; conditions: 310 K, PBS pH 7.4, Pin1-WW 81.4 μM in cell, P33 in syringe
Experimental: Synthesis of acetyl-Fe65-WW, acetyl-Pin1-WW, and the control PPPPP (structures involved in Figure 2) was carried out on a Rink Amide AM (0.3 mmol∙g^−1) resin using Fmoc chemistry and activation with HATU in the presence of DIPEA. Cleavage was achieved by a treatment with TFA/H2O/triisopropylsilane/1,4-dithio-DL-threitol/phenol (90:5:3:1:1) at room temperature (RT). TFA was removed in vacuo, the peptides were then precipitated using cold, dry diethyl-ether, dissolved in ACN/H2O and lyophilized.
Isothermal titrations were performed using a Microcal VP-ITC (Malvern Instruments, Malvern, UK) microcalorimeter. Binding experiments were carried out in degassed phosphate-buffered saline (PBS) at pH 7.4. The concentrations of Fe65-WW and Pin1-WW were normalized for the peptide contents. In one titration experiment, 10-μL portions of the ligand-containing solution (P33 or PPPPP) were injected from a computer-controlled 300-μL microsyringe at intervals of 300 s into the solution of the WW domain (Fe65-WW or Pin1-WW), dissolved in the same buffer as for the ligand. The rev of the microsyringe was set to 307 rpm. […] Control experiments were performed by injecting P33 or PPPPP into the cell containing plain buffer without the WW domain, with results achieved via subtracting the dilution heats from those measured in the presence of the WW domain.

SMILES: C[C@@H](N)C(=O)N1CCC[C@@H]1C(=O)N[C@H](C)C(=O)N1CCC[C@@H]1C(=O)N[C@H](CCC(=O)O)C(N)=O [P33] (HELM PEPTIDE1{[dA].[dP].[dA].[dP].[dE].[am]}$$$$V2.0)
- Aβ plaque density, effect of P33 (in words) [1]: significantly decreased the plaque density in APP/PS1-P33 mice
- binding to Pin1-WW (in words) [2]: no considerable binding; also recorded: no detectable binding to the Pin1-WW could be observed
